Calls of active or inactive are those of the source. The rule behind the calls is not given here. Numbered stars: 1 amine (or outer) side, 2 acyl side, 3 side chain; on linkers, the order of the positions; unused ones are H or OH. Square brackets hold non-standard residues; d marks the D form. Peptide text beside a SMILES is read from it. X1 = CC(=O)N[C@H]1[C@@H](O[C@@H](C)CN(CC(=O)[*:2])[*:1])O[C@H](CO)[C@H](O)[C@@H]1O; X2 = CC(=O)N[C@H]1[C@@H](O[C@H](C)CN(CC(=O)[*:2])[*:1])O[C@H](CO)[C@H](O)[C@@H]1O; X3 = CC(=O)N[C@H]1[C@@H](OCCN(CC(=O)[*:2])[*:1])O[C@H](CO)[C@H](O)[C@@H]1O

The source of these data is ChEMBL document CHEMBL1833802, “Substitution of the GalNAc-α-O-Thr¹¹ residue in drosocin with O-linked glyco-peptoid residue: effect on antibacterial activity and conformational change” (2011).

Experiment [1] deals with Escherichia coli. The experiment can be described thus: Antibacterial activity against clinical isolate Escherichia coli KCTC 1682 after overnight incubation by radial diffusion assay. It is filed as functional, organism-based.
Experiment [2] has as its system Escherichia coli. As to the kind of experiment: Antibacterial activity against clinical isolate Escherichia coli KCTC 1682 at 50 uM after overnight incubation by radial diffusion assay relative to drosocin D. It counts as functional.

As to `CC[C@H](C)[C@H](NC(=O)[C@@H]1CCCN1C(=O)[C@H](CCCNC(=N)N)NC(=O)[C@@H]1CCCN1C(=O)[C@H](Cc1cnc[nH]1)NC(=O)[C@H](CO)NC(=O)CN(C[C@H](C)O[C@H]1O[C@H](CO)[C@H](O)[C@H](O)[C@H]1NC(C)=O)C(=O)[C@H](C)NC(=O)[C@H](CCCNC(=N)N)NC(=O)[C@@H]1CCCN1C(=O)[C@@H](NC(=O)[C@H](Cc1ccc(O)cc1)NC(=O)[C@@H]1CCCN1C(=O)[C@H](CCCNC(=N)N)NC(=O)[C@@H]1CCCN1C(=O)[C@H](CCCCN)NC(=O)CN)[C@@H](C)O)C(=O)N[C@@H](CCCNC(=N)N)C(=O)N[C@H](C(=O)O)C(C)C` (H-GKPRPYTPRA[X1]SHPRPIRV-OH), the Activity entry in the experiment with Escherichia coli [1] was “Dose-dependent effect”. Further, in the experiment on Escherichia coli [2], the “fold change (FC)” value was determined as 6.

For `CC[C@H](C)[C@H](NC(=O)[C@@H]1CCCN1C(=O)[C@H](CCCNC(=N)N)NC(=O)[C@@H]1CCCN1C(=O)[C@H](Cc1cnc[nH]1)NC(=O)[C@H](CO)NC(=O)CN(C[C@@H](C)O[C@H]1O[C@H](CO)[C@H](O)[C@H](O)[C@H]1NC(C)=O)C(=O)[C@H](C)NC(=O)[C@H](CCCNC(=N)N)NC(=O)[C@@H]1CCCN1C(=O)[C@@H](NC(=O)[C@H](Cc1ccc(O)cc1)NC(=O)[C@@H]1CCCN1C(=O)[C@H](CCCNC(=N)N)NC(=O)[C@@H]1CCCN1C(=O)[C@H](CCCCN)NC(=O)CN)[C@@H](C)O)C(=O)N[C@@H](CCCNC(=N)N)C(=O)N[C@H](C(=O)O)C(C)C` (H-GKPRPYTPRA[X2]SHPRPIRV-OH), in the experiment on Escherichia coli [1], the result was Active.

For `CC[C@H](C)[C@H](NC(=O)[C@@H]1CCCN1C(=O)[C@H](CCCNC(=N)N)NC(=O)[C@@H]1CCCN1C(=O)[C@H](Cc1cnc[nH]1)NC(=O)[C@H](CO)NC(=O)CN(CCO[C@H]1O[C@H](CO)[C@H](O)[C@H](O)[C@H]1NC(C)=O)C(=O)[C@H](C)NC(=O)[C@H](CCCNC(=N)N)NC(=O)[C@@H]1CCCN1C(=O)[C@@H](NC(=O)[C@H](Cc1ccc(O)cc1)NC(=O)[C@@H]1CCCN1C(=O)[C@H](CCCNC(=N)N)NC(=O)[C@@H]1CCCN1C(=O)[C@H](CCCCN)NC(=O)CN)[C@@H](C)O)C(=O)N[C@@H](CCCNC(=N)N)C(=O)N[C@H](C(=O)O)C(C)C` (H-GKPRPYTPRA[X3]SHPRPIRV-OH), in the experiment on Escherichia coli [1], the result was Active.
